According to patent US20240279202A1 (NURIX THERAPEUTICS, INC., priority 2021, published 2024):

Biological target: T1, ITK (Mus musculus, UniProt Q03526)
T1 construct: mice were sacrificed and splenocytes were isolated and used to prepare protein lysates; from tissue; host or cells: mouse splenocytes (spleen) after oral dosing
T1 sequence (Q03526 1-625): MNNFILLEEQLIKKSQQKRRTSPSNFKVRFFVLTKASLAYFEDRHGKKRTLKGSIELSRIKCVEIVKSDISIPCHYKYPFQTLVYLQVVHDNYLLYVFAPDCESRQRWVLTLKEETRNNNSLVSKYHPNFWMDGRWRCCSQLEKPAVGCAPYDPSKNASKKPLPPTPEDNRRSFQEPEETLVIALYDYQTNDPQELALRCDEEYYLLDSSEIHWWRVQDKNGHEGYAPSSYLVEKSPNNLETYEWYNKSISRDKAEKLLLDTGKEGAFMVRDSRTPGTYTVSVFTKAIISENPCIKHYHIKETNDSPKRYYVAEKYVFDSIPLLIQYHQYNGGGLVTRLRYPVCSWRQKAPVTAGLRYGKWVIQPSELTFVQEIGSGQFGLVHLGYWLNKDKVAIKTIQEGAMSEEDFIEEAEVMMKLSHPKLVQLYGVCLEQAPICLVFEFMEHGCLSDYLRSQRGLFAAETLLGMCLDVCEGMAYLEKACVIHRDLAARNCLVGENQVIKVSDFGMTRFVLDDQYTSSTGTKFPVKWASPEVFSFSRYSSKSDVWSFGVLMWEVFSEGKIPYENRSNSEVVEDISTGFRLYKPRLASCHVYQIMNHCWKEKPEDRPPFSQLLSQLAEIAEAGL
Test: Mouse PD assay for ITK degradation (Western blot, splenocytes after oral administration)
Assay type: in vivo
Details: for ITK (%) 90 mpk PO, 6 h: percent ITK remaining in mouse splenocytes relative to vehicle; for ITK degradation in vivo at 6 hours (FIG. 2): 90 mg/kg PO
Procedure: Compounds 1, 3, 7, and 42 were formulated and administered at 90 mg/kg to mice by oral gavage (PO). Blood was collected at defined time points (after 1, 2, and 6 hours) after compounds administration to determine PK parameters. Concentration increased through 6 hours. Six hours later mice were sacrificed and splenocytes were isolated and used to prepare protein lysates. Total protein levels were determined in the lysates using the BCA assay according to standard methods. Equal amounts of protein were then analyzed by Western blot to determine the level of ITK expression in each sample. ITK band intensities were measured using Alpha View software and the percent of ITK remaining in each test animal was determined relative to the mean of ITK levels in vehicle control samples.
After 6 hours, splenocytes cells were harvested. ITK was evaluated by Western blotting.
Compounds 43, 4, 5, 10, 11, 12, 44, 14, 3, and 13 were administered to mice orally. After 6 hours, splenocytes cells were harvested. ITK was evaluated by Western blotting. Media was removed and cell pellets were lysed in 100 uL lysis buffer (RIPA buffer (Fisher, PI89901), cOmplete Mini EDTA-free protease inhibitor (Sigma 11836170001), Protease Inhibitor Cocktail (Sigma, P2714), Phosphatase Inhibitor Cocktail 2 and 3 (Sigma, P5726 and P0044), Benzonase (Sigma, E1014)). Cells were lysed overnight at −20° C. Following thaw, cells were centrifuged for 10 min at 13000 rpm, then transferred to new tube. Protein levels were determined by BCA Assay performed according to manufacturer's protocol (EMID Millipore, cat. no. 71285-3). Samples were combined with (4×) LDS Sample Buffer and (10×) Reducing Agent and H2O to equally load 20 ug protein per lane of a 26-well NuPAGE 4-12% Bis-Tris protein gel (1.0 mm, Thermo cat. no. NP0326). Samples were separated by running gels at constant 150 V in NuPAGE MES SDS Running Buffer. Following electrophoresis, proteins were transferred to nitrocellulose membranes using an iBlot Gel Transfer Device and iBlot Gel Transfer Stacks (Thermo cat. no. IB21001 and IB301001) and transfer method P3 (20V for 7 min). Membranes were blocked for 1 hr in 5% milk solution (TBS (0.2% Tween-20)). Following blocking, membranes were incubated with primary antibody (1:1000 CST ITK (2F12) #2380) overnight at 4° C. with gentle shaking. Blots were washed 2× in TBS (0.2% Tween-20), 30 min per wash. Following washes, blots were incubated in secondary HRP-conjugated antibody (Promega anti-Mouse IgG (H+L) HRP cat. no. W4021), 1:5000 in 5% milk solution (TBS (0.2% Tween-20)), for 1 hr at room temperature with gentle shaking. Blots were washed 2× in TBS (0.2% Tween-20), 30 min per wash. Blots were incubated with 1:1 mix of ECL reagents 1 & 2 (Amersham ECL Western Blotting Detection Reagent, cat. no. RPN2106) for 2 min at room temperature. Bands were visualized using a Protein Simple imager. Blots were then re-probed with a combination of anti-actin antibody (Sigma Monoclonal Mouse Anti-3-Actin (clone AC-15), cat. no. A5441) and secondary H1RP-conjugated antibody (Promega anti-Mouse IgG (H+L) HRP, cat. no. W4021) and similar steps were taken for incubation, wash, detection and visualization steps as above. The data was analyzed using Alpha View software. The densitometric reading for each sample band was normalized to that of the corresponding actin band per lane. Approximate % ITK remaining per sample was calculated as follows: […]
Once % ITK remaining has been calculated for each sample, groups are averaged together to show an means % ITK normalized to actin and relative to control.
Compounds 16, 17, and 18 were administered to mice orally. After 6 hours or 24 hours, splenocytes cells were harvested. ITK was evaluated by Western blotting. Plasma concentrations were determined by LC/MS/MS. Plasma samples were protein precipitated by addition of 100 μl of acetonitrile containing 50 ng/ml of internal standard. The resulting mixture was vortexed and centrifuged at 4000 RPM for 5 minutes. […]

[1] = mice, splenocytes, Western blot
[2] = mice, oral, splenocytes, Western blot

SMILES	ITK (%) 90 mpk PO, 6 h [%]	also measured
CN(c1ccc2cc(-c3n[nH]c4c3C[C@@H]3C(F)(F)[C@]3(C)C4)[nH]c2c1)C(=O)[C@H]1C[C@]2(CCN(c3ccc4c(c3)C(=O)N([C@H]3CCC(=O)NC3=O)C4=O)C2)C1 (racemic) [Compound 71b, (2s,4s)-N-[2-[(4aS,5aR)-5,5-difluoro-5a-methyl-1H,4H,4aH,6H-cyclopropa[f]indazol-3-yl]-1H-indol-6-yl]-6-[2-[(3RS)-2,6-dioxopiperidin-3-yl]-1,3-dioxoisoindol-5-yl]-N-methyl-6-azaspiro[3.4]octane-2-carboxamide]	30	
CN(C(=O)CC[C@H]1CCN(c2ccc3c(c2)C(=O)N(C2CCC(=O)NC2=O)C3=O)C1)c1ccc2cc(-c3n[nH]c4c3C[C@@H]3C(F)(F)[C@]3(C)C4)[nH]c2c1 (stereo in doubt) [Compound 67, N-(2-((4aS,5aR)-5,5-difluoro-5a-methyl-1,4,4a,5,5a,6-hexahydrocyclopropafindazol-3-yl)-1H-indol-6-yl)-3-((3R)-1-(2-(2,6-dioxopiperidin-3-yl)-1,3-dioxoisoindolin-5-yl)pyrrolidin-3-yl)-N-methylpropanamide]		ITK (%) 90 mpk PO, 6 h (90 mg/kg): 190%
CN(C(=O)CC[C@H]1CCN(c2ccc3c(c2)C(=O)N(C2CCC(=O)NC2=O)C3=O)C1)c1ccc2cc(-c3n[nH]c4c3C[C@@H]3C(F)(F)[C@]3(C)C4)[nH]c2c1 (stereo in doubt) [Compound 68]		ITK (%) 90 mpk PO, 6 h (90 mg/kg): 240%
CN(C(=O)CCC1CCN(c2ccc3c(c2)C(=O)N(C2CCC(=O)NC2=O)C3=O)C1)c1ccc2cc(-c3n[nH]c4c3CCC(C)(C)C4)[nH]c2c1 (stereo not drawn) [Compound 1, N-(2-(6,6-dimethyl-4,5,6,7-tetrahydro-1H-indazol-3-yl)-1H-indol-6-yl)-3-(1-(2-(2,6-dioxopiperidin-3-yl)-1,3-dioxoisoindolin-5-yl)pyrrolidin-3-yl)-N-methylpropanamide]	153	ITK degradation in vivo at 6 hours (FIG. 2) [1]: degraded ITK in vivo
CN(C(=O)CCN1CCN(c2ccc3c(c2)C(=O)N(C2CCC(=O)NC2=O)C3=O)CC1)c1ccc2cc(-c3n[nH]c4c3CCC(C)(C)C4)[nH]c2c1 (stereo not drawn) [Compound 2, N-(2-(6,6-dimethyl-4,5,6,7-tetrahydro-1H-indazol-3-yl)-1H-indol-6-yl)-3-(4-(2-(2,6-dioxopiperidin-3-yl)-1,3-dioxoisoindolin-5-yl)piperazin-1-yl)-N-methylpropanamide]	49.3	
C[C@@H](C(=O)N(C)c1ccc2cc(-c3n[nH]c4c3C[C@@H]3C(F)(F)[C@]3(C)C4)[nH]c2c1)N1CCN(C[C@H]2CCN(c3ccc4c(c3)C(=O)N(C3CCC(=O)NC3=O)C4=O)C2)CC1 (stereo partly drawn) [Compound 9, (2S)—N-(2-((4aS,5aR)-5,5-difluoro-5a-methyl-1,4,4a,5,5a,6-hexahydrocyclopropa[f]indazol-3-yl)-1H-indol-6-yl)-2-(4-(((3R)-1-(2-(2,6-dioxopiperidin-3-yl)-1,3-dioxoisoindolin-5-yl)pyrrolidin-3-yl)methyl)piperazin-1-yl)-N-methylpropanamide]	49.3	

Further lines, with some results ahead:

ITK (%) 90 mpk PO, 6 h [%]	SMILES	also measured
24	C[C@@H](C(=O)N(C)c1ccc2cc(-c3n[nH]c4c3CCC(C)(C)C4)[nH]c2c1)N1CCN(CC2CCN(c3cccc4c3n(C)c(=O)n4C3CCC(=O)NC3=O)CC2)CC1 (stereo partly drawn) [Compound 3, (2S)—N-(2-(6,6-dimethyl-4,5,6,7-tetrahydro-1H-indazol-3-yl)-1H-indol-6-yl)-2-(4-((1-(1-(2,6-dioxopiperidin-3-yl)-3-methyl-2-oxo-2,3-dihydro-1H-benzo[d]imidazol-4-yl)piperidin-4-yl)methyl)piperazin-1-yl)-N-methylpropanamide]	ITK degradation in vivo at 6 hours (FIG. 2) [1]: degraded ITK in vivo; ITK degradation in vivo at 6 hours (FIG. 3A, FIG. 4A) [2]: degraded ITK in vivo; ITK degradation in vivo at 24 hours (FIG. 3A, FIG. 4A) (mice, oral, splenocytes, Western blot, 24 hours): degraded ITK in vivo
75	C[C@@H](C(=O)N(C)c1ccc2cc(-c3n[nH]c4c3CCC(C)(C)C4)[nH]c2c1)N1CCN(C[C@@H]2CCN(c3ccc4c(c3)n(C)c(=O)n4C3CCC(=O)NC3=O)C2)CC1 (stereo partly drawn) [Compound 4, (2S)—N-(2-(6,6-dimethyl-4,5,6,7-tetrahydro-1H-indazol-3-yl)-1H-indol-6-yl)-2-(4-(((3S)-1-(1-(2,6-dioxopiperidin-3-yl)-3-methyl-2-oxo-2,3-dihydro-1H-benzo[d]imidazol-5-yl)pyrrolidin-3-yl)methyl)piperazin-1-yl)-N-methylpropanamide]	ITK degradation in vivo at 6 hours (FIG. 3A, FIG. 4A) [2]: degraded ITK in vivo
97	C[C@@H](C(=O)N(C)c1ccc2cc(-c3n[nH]c4c3CCC(C)(C)C4)[nH]c2c1)N1CCN(C[C@H]2CCN(c3ccc4c(c3)n(C)c(=O)n4C3CCC(=O)NC3=O)C2)CC1 (stereo partly drawn) [Compound 5, (2S)—N-(2-(6,6-dimethyl-4,5,6,7-tetrahydro-1H-indazol-3-yl)-1H-indol-6-yl)-2-(4-(((3R)-1-(1-(2,6-dioxopiperidin-3-yl)-3-methyl-2-oxo-2,3-dihydro-1H-benzo[d]imidazol-5-yl)pyrrolidin-3-yl)methyl)piperazin-1-yl)-N-methylpropanamide]	ITK degradation in vivo at 6 hours (FIG. 3A, FIG. 4A) [2]: degraded ITK in vivo
105	C[C@@H](C(=O)N(C)c1ccc2cc(-c3n[nH]c4c3CCC(C)(C)C4)[nH]c2c1)N1CCN(CC2CCN(c3ccc4c(c3)n(C)c(=O)n4C3CCC(=O)NC3=O)CC2)CC1 (stereo partly drawn) [Compound 6, (2S)—N-(2-(6,6-dimethyl-4,5,6,7-tetrahydro-1H-indazol-3-yl)-1H-indol-6-yl)-2-(4-((1-(1-(2,6-dioxopiperidin-3-yl)-3-methyl-2-oxo-2,3-dihydro-1H-benzo[d]imidazol-5-yl)piperidin-4-yl)methyl)piperazin-1-yl)-N-methylpropanamide]	
100	C[C@@H](C(=O)N(C)c1ccc2cc(-c3n[nH]c4c3CCC(C)(C)C4)[nH]c2c1)N1CCN(CC2CCN(c3ccc(C(=O)NC4CCC(=O)NC4=O)nc3)CC2)CC1 (stereo partly drawn) [Compound 7, 5-(4-((4-((S)-1-((2-(6,6-dimethyl-4,5,6,7-tetrahydro-1H-indazol-3-yl)-1H-indol-6-yl)(methyl)amino)-1-oxopropan-2-yl)piperazin-1-yl)methyl)piperidin-1-yl)-N-(2,6-dioxopiperidin-3-yl)picolinamide]	ITK degradation in vivo at 6 hours (FIG. 2) [1]: degraded ITK in vivo
